{"source": "patent US6911432B2", "about": "“Drugs, foods or drinks with the use of algae-derived physiologically active substances” (priority 1997, dated 2005)", "key": {"RAW264.7": {"test_system": "RAW264.7", "test": "antiproliferation assay, MTT method", "format": "cell-based, mouse", "experimental": "(§1) Each fraction was sterilized by filtration and its 10 μl portion was placed in a well of a 96 well microtiter plate. […] The cell morphology was observed under an optical microscope. […] The absorbance at 590 nm was measured to determine a cell proliferation rate. (2) A 50 mM solution of agarobiose, agarotetraose or agarohexaose obtained in Example 3-(1) was sterilized by filtration and diluted 2-, 4-, 8-, 16-, 32-, 64- and 128-folds with sterilized water. […] [table] The number in Table 3 represents the dilution rate of the dilution added to the group whose absorbance at 590 nm was less than one-half of that of the control group to which water was added. […] Then, for agarobiose, agarotetraose and agarohexaose, the concentrations required for 50% proliferation inhibitory rate (IC50) are calculated based on the change in the absorbance at 590 nm, and are shown in Table 4."}, "MCF7": {"test_system": "MCF7", "test": "antiproliferation assay, MTT method", "format": "cell-based, human", "experimental": "as §1"}, "HeLa S3": {"test_system": "HeLa S3", "test": "antiproliferation assay, MTT method", "format": "cell-based, human", "experimental": "as §1"}, "T24": {"test_system": "T24", "test": "antiproliferation assay, MTT method", "format": "cell-based, human", "experimental": "as §1"}, "A549": {"test_system": "A549", "test": "antiproliferation assay, MTT method", "format": "cell-based, human", "experimental": "as §1"}, "WiDr": {"test_system": "WiDr", "test": "antiproliferation assay, MTT method", "format": "cell-based, human", "experimental": "as §1"}, "T-47D": {"test_system": "T-47D", "test": "antiproliferation assay, MTT method", "format": "cell-based, human", "experimental": "as §1"}, "RPMI1788": {"test_system": "RPMI1788", "test": "antiproliferation assay, MTT method", "format": "cell-based, human", "experimental": "as §1"}, "HepG2": {"test_system": "HepG2", "test": "antiproliferation assay, MTT method", "format": "cell-based, human", "experimental": "as §1"}, "HT-29": {"test_system": "HT-29", "test": "antiproliferation assay, MTT method", "format": "cell-based, human", "experimental": "as §1"}, "HCT116": {"test_system": "HCT116", "test": "antiproliferation assay, MTT method", "format": "cell-based, human", "experimental": "as §1"}, "MKN45": {"test_system": "MKN45", "test": "antiproliferation assay, MTT method", "format": "cell-based, human", "experimental": "as §1"}, "[1]": {"test": "reaction with L-cysteine or L-lysine in phosphate buffered saline at 37° C., thin layer chromatography", "format": "physicochemical", "experimental": "(2) Agarobiose and agarohexaose obtained in Example 14-(1) were dissolved in water to prepare 100 mM aqueous solutions thereof. To each 25 μl of these solutions was added 50 μl of 100 mM aqueous L-cysteine solution, followed by addition of 925 μl of phosphate buffered saline. Then, the mixture was treated at 37° C. for 1 hour or 16 hours. The same reaction was repeated except that an aqueous solution containing the same concentration of L-lysine was used instead of the aqueous L-cysteine solution.\n1 μl of a sample from each reaction was spotted on a silica gel sheet 60 F254, developed with 1-butanol:ethanol:water=5:5:1 and detected by orcinol-sulfate method."}, "HL-60 cells": {"test_system": "HL-60 cells", "test": "antiproliferation assay, MTT method, absorbance at 590 nm", "format": "cell-based, human", "details": "HL-60"}, "[2]": {"test_system": "lipid peroxide radical production", "test": "inhibition of lipid peroxide radical production (tert-butyl hydroperoxide, bacterial growth readout)", "format": "cell-based, Staphylococcus aureus 3A", "set-up": "key to growth of the bacterium (activity of inhibiting lipid peroxide radical production): + represents the sample in which the growth of the bacterium was observed; −represents the sample in which the growth of the bacterium was not observed", "experimental": "Staphylococcus aureus 3A (National Collection Of Type Culture, NCTC 8319) was inoculated into 5 ml of brain heart infusion medium (manufactured by Difco, 0037-17-8) and cultured at 37° C. overnight. The bacterial cells were collected by centrifugation, washed with phosphate buffered saline 3 times and then suspended in phosphate buffered saline at a concentration of 1×10^7 colony forming units/ml. A mixture of 100 μl of the cell suspension, 100 μl of an aqueous sample solution, 100 μl of aqueous 1 mg/ml methemoglobin (manufactured by Sigma M9250) solution, 600 μl of phosphated buffered saline and 100 μl of aqueous 50 mM tert-butyl hydroperoxide (manufactured by Katayama Kagaku, 03-4990) solution were reacted at 37° C. for 30 minutes. To the reaction mixture was added 1 ml of 2×NMP medium [prepared by dissolving 8 g of nutrient broth (manufactured by Difco, 0003-01-6), 5 g of trypton (manufactured by Difco, 0123-17-3), 5 g of NaCl, 10 g of mannitol (manufactured by Nacalai Tesque, 213-03) and 0.035 g of phenol red (manufactured by Nacalai Tesque, 268-07) in distilled water to make the volume up to 500 ml. The pH was adjusted to 7.5 with NaOH and then the mixture was sterilized by filtration] to stop the reaction. The resultant mixture was diluted every 3-folds with NMP medium (prepared by diluting 2×NMP medium 2-folds with sterilized water) to prepare 12 serial dilutions and 160 μl of each dilution was placed in each well of a 96-well microtiter plate. The plate was incubated at 37° C. overnight.\nIn Table 14, + represents the sample in which the growth of the bacterium was observed, and −represents the sample in which the growth of the bacterium was not observed. The concentration shown in the uppermost line of the table is that of the sample in the reaction mixture in which the sample was reacted with tert-butyl hydroperoxide and the bacterial cells at 37° C. for 30 minutes."}, "iNOS": {"test_system": "iNOS", "test": "iNOS expression by western blotting and RT-PCR", "format": "cell-based", "details": "protein level by western blotting, messenger RNA level by RT-PCR", "experimental": "The confirmation was carried out at protein level by western blotting and at messenger RNA level by RT-PCR. That is, the compounds used in the present invention are useful for treating and preventing diseases that require inhibition of NO production by inhibiting expression of iNOS which is overexpressed by various factors to produce excess NO."}, "A-172": {"test_system": "A-172", "test": "antiproliferation assay, MTT method", "format": "cell-based", "experimental": "as §1"}, "HT-1080": {"test_system": "HT-1080", "test": "antiproliferation assay, MTT method", "format": "cell-based", "experimental": "as §1"}, "[3]": {"details": "dilution rate 1 corresponds to 5 mM in medium"}, "[4]": {"details": "read-out: IC50 (concentration required for 50% proliferation inhibitory rate)"}}}
{"smiles": "OC[C@H]1O[C@@H](O[C@H]2[C@H]3OC[C@@H]2O[C@@H](O[C@H]2[C@@H](O)[C@@H](CO)O[C@@H](O[C@H]4[C@H]5OC[C@@H]4OC(O)[C@H]5O)[C@@H]2O)[C@H]3O)[C@H](O)[C@@H](O)[C@H]1O", "note": "(stereo partly shown) [Agarotetraose, agarotetraose]", "values": [{"measurement": "dilution rate of the dilution added to the group whose absorbance at 590 nm was less than one-half of that of the control group", "setting": "RAW264.7; [3]", "value": 32}, {"measurement": "IC50", "setting": "RAW264.7; [4]", "value": 133, "unit": "µM"}, {"measurement": "dilution rate of the dilution added to the group whose absorbance at 590 nm was less than one-half of that of the control group", "setting": "MCF7; [3]", "value": 16}, {"measurement": "IC50", "setting": "MCF7; [4]", "value": 276, "unit": "µM"}, {"measurement": "dilution rate of the dilution added to the group whose absorbance at 590 nm was less than one-half of that of the control group", "setting": "HeLa S3; [3]", "value": 8}, {"measurement": "IC50", "setting": "HeLa S3; [4]", "value": 400, "unit": "µM"}, {"measurement": "dilution rate of the dilution added to the group whose absorbance at 590 nm was less than one-half of that of the control group", "setting": "T24; [3]", "value": 8}, {"measurement": "IC50", "setting": "T24; [4]", "value": 399, "unit": "µM"}, {"measurement": "dilution rate of the dilution added to the group whose absorbance at 590 nm was less than one-half of that of the control group", "setting": "A549; [3]", "value": 8}, {"measurement": "IC50", "setting": "A549; [4]", "value": 494, "unit": "µM"}, {"measurement": "dilution rate of the dilution added to the group whose absorbance at 590 nm was less than one-half of that of the control group", "setting": "WiDr; [3]", "value": 8}, {"measurement": "IC50", "setting": "WiDr; [4]", "value": 399, "unit": "µM"}, {"measurement": "dilution rate of the dilution added to the group whose absorbance at 590 nm was less than one-half of that of the control group", "setting": "T-47D; [3]", "value": 16}, {"measurement": "IC50", "setting": "T-47D; [4]", "value": 183, "unit": "µM"}, {"measurement": "dilution rate of the dilution added to the group whose absorbance at 590 nm was less than one-half of that of the control group", "setting": "RPMI1788; [3]", "value": 128}, {"measurement": "IC50", "setting": "RPMI1788; [4]", "value": 28, "unit": "µM"}, {"measurement": "dilution rate of the dilution added to the group whose absorbance at 590 nm was less than one-half of that of the control group", "setting": "HepG2; [3]", "value": 8}, {"measurement": "IC50", "setting": "HepG2; [4]", "value": 413, "unit": "µM"}, {"measurement": "dilution rate of the dilution added to the group whose absorbance at 590 nm was less than one-half of that of the control group", "setting": "HT-29; [3]", "value": 16}, {"measurement": "IC50", "setting": "HT-29; [4]", "value": 208, "unit": "µM"}, {"measurement": "dilution rate of the dilution added to the group whose absorbance at 590 nm was less than one-half of that of the control group", "setting": "HCT116; [3]", "value": 32}, {"measurement": "IC50", "setting": "HCT116; [4]", "value": 158, "unit": "µM"}, {"measurement": "dilution rate of the dilution added to the group whose absorbance at 590 nm was less than one-half of that of the control group", "setting": "MKN45; [3]", "value": 16}, {"measurement": "IC50", "setting": "MKN45; [4]", "value": 196, "unit": "µM"}, {"measurement": "spot of the saccharide on thin layer chromatography after reaction", "setting": "[1]; L-cysteine, 1 hour", "value": "disappeared"}, {"measurement": "spot of the saccharide on thin layer chromatography after reaction", "setting": "[1]; L-cysteine, 16 hours", "value": "disappeared"}, {"measurement": "spot of the saccharide on thin layer chromatography after reaction", "setting": "[1]; L-lysine, 16 hours", "value": "disappeared"}, {"measurement": "dilution rate of the dilution added to the group whose absorbance at 590 nm was less than one-half of that of the control group", "setting": "HL-60 cells; 50 mM solution diluted 2- to 128-fold, dilution rate 1 corresponds to 5 mM in the cell culture medium", "value": 64}, {"measurement": "antiproliferation activity relative to the same concentration of the unreacted saccharide", "setting": "HL-60 cells; after reaction with L-cysteine at 37° C. for 1 hour", "value": "1/10"}, {"measurement": "antiproliferation activity relative to the same concentration of the unreacted saccharide", "setting": "HL-60 cells; after reaction with L-cysteine at 37° C. for 16 hours", "value": "1/10"}, {"measurement": "antiproliferation activity relative to the same concentration of the unreacted saccharide", "setting": "HL-60 cells; after reaction with L-lysine at 37° C. for 16 hours", "value": "1/10"}, {"measurement": "IC50", "setting": "HL-60 cells; [4]", "value": 97, "unit": "µM"}, {"measurement": "activity of inhibiting lipid peroxide radical production (in words)", "setting": "[2]", "value": "strong activity"}, {"measurement": "growth of the bacterium (activity of inhibiting lipid peroxide radical production)", "setting": "[2]; 0.1 mM sample in the reaction mixture", "value": "−"}, {"measurement": "growth of the bacterium (activity of inhibiting lipid peroxide radical production)", "setting": "[2]; 1 mM sample in the reaction mixture", "value": "+"}, {"measurement": "inhibition of iNOS expression", "setting": "iNOS", "value": "inhibit this iNOS expression"}, {"measurement": "dilution rate of the dilution added to the group whose absorbance at 590 nm was less than one-half of that of the control group", "setting": "A-172; [3]", "value": 16}, {"measurement": "IC50", "setting": "A-172; [4]", "value": 185, "unit": "µM"}, {"measurement": "dilution rate of the dilution added to the group whose absorbance at 590 nm was less than one-half of that of the control group", "setting": "HT-1080; [3]", "value": 16}, {"measurement": "IC50", "setting": "HT-1080; [4]", "value": 216, "unit": "µM"}]}
